ChEMBL document CHEMBL5608244, “Preclinical Evaluation of Dihydropyrazole-Cored Positron Emission Tomography (PET) Ligands for Imaging of Receptor-Interacting Serine/Threonine Protein Kinase 1 (RIPK1) in the Brain” (J Med Chem, 2024)

Experiments:
[1] = Biodistribution in ICR mouse liver at 0.74 MBq, iv measured after 2 mins by automatic gamma counter analysis; type: ADME, organism-based; conditions: in vivo
[2] = Biodistribution in ICR mouse muscle at 0.74 MBq, iv measured after 10 mins by automatic gamma counter analysis; type: ADME, organism-based, Muscle tissue; conditions: in vivo
[3] = Biodistribution in ICR mouse kidneys at 0.74 MBq, iv measured after 60 mins by automatic gamma counter analysis; type: ADME, organism-based, Kidney; conditions: in vivo, 1 h
[4] = Biodistribution in ICR mouse assessed as decrease in drug accumulation in small intestine at 0.74 MBq, iv pretreated with 1-(5-(3-fluorophenyl)-4,5-dihydro-1H-pyrazol-1-yl)-2,2-dimethylpropan-1-one followed by compound administration measured after 10 mins by automatic gamma counter analysis; type: ADME, organism-based; design: scale not given: the % may be the effect or the level left; conditions: in vivo
[5] = Biodistribution in ICR mouse stomach at 0.74 MBq, iv measured after 60 mins by automatic gamma counter analysis; type: ADME, organism-based; conditions: in vivo, 1 h
[6] = Drug uptake in Sprague-Dawley rat brain assessed as reduction in radioactivity at 10 to 17.6 MBq, iv pretreated with 1-(5-(3-fluorophenyl)-4,5-dihydro-1H-pyrazol-1-yl)-2,2-dimethylpropan-1-one followed by compound administration measured upto 30 mins by PET analysis; type: ADME, organism-based; design: scale not given: the % may be the effect or the level left; conditions: in vivo, 0.5 h, dose 10-17.6 MBq
[7] = Biodistribution in ICR mouse blood at 0.74 MBq, iv measured after 10 mins by automatic gamma counter analysis; type: ADME, organism-based; conditions: in vivo
[8] = Stability in saline measured for 60 to 150 mins by reversed-phase HPLC analysis; type: physicochemical; conditions: buffer; time 60-150 min
[9] = Drug metabolism in mouse plasma assessed as parent compound remaining at 13.5 MBq, iv measured after 30 mins by HPLC analysis; type: ADME, organism-based; conditions: read-out: Activity
[10] = Drug uptake in thalamus of ICR mouse brain at 0.5 to 10 uM incubated for 30 mins by Phosphor Imager analysis; type: ADME, tissue-based; conditions: 0.5 h, dose 0.5-10 µM
[11] = Biodistribution in ICR mouse assessed as decrease in drug accumulation in bone with marrow at 0.74 MBq, iv pretreated with GSK'547 followed by compound administration measured after 10 mins by automatic gamma counter analysis; type: ADME, organism-based; design: scale not given: the % may be the effect or the level left; conditions: in vivo
[12] = Biodistribution in ICR mouse pancreas at 0.74 MBq, iv measured after 10 mins by automatic gamma counter analysis; type: ADME, organism-based; conditions: in vivo
[13] = Stability in Balb/c mouse plasma measured for 60 to 150 mins by reversed-phase HPLC analysis; type: ADME; conditions: time 60-150 min
[14] = Biodistribution in ICR mouse bone at 0.74 MBq, iv measured after 60 mins by automatic gamma counter analysis; type: ADME, organism-based, Bone element; conditions: in vivo, 1 h
[15] = Biodistribution in ICR mouse spleen at 0.74 MBq, iv measured after 60 mins by automatic gamma counter analysis; type: ADME, organism-based; conditions: in vivo, 1 h
[16] = Biodistribution in ICR mouse heart at 0.74 MBq, iv measured after 30 mins by automatic gamma counter analysis; type: ADME, organism-based; conditions: in vivo, 0.5 h
[17] = Drug uptake in Sprague-Dawley rat brain at 10 to 17.6 MBq, iv treated for about 1 min by PET analysis; type: ADME, organism-based; conditions: in vivo, dose 10-17.6 MBq
[18] = Biodistribution in ICR mouse spleen at 0.74 MBq, iv measured after 30 mins by automatic gamma counter analysis; type: ADME, organism-based; conditions: in vivo, 0.5 h
[19] = Biodistribution in ICR mouse bone at 0.74 MBq, iv measured after 2 mins by automatic gamma counter analysis; type: ADME, organism-based, Bone element; conditions: in vivo
[20] = Biodistribution in ICR mouse assessed as drug accumulation in lungs at 0.74 MBq, iv pretreated with GSK'547 followed by compound administration measured after 10 mins by automatic gamma counter analysis; type: ADME, organism-based; conditions: in vivo
[21] = Biodistribution in ICR mouse blood at 0.74 MBq, iv measured after 2 mins by automatic gamma counter analysis; type: ADME, organism-based; conditions: in vivo
[22] = Biodistribution in ICR mouse spleen at 0.74 MBq, iv measured after 2 mins by automatic gamma counter analysis; type: ADME, organism-based; conditions: in vivo
[23] = Drug uptake in brain of TNF-alpha-induced SIRS Sprague-Dawley rat model assessed as decrease in radioactivity at 9.9 to 14.8 MBq, iv measured upto 20 mins by PET analysis; type: ADME, organism-based; design: scale not given: the % may be the effect or the level left; conditions: in vivo, dose 9.9-14.8 MBq
[24] = Biodistribution in ICR mouse small intestine at 0.74 MBq, iv measured after 10 mins by automatic gamma counter analysis; type: ADME, organism-based; conditions: in vivo
[25] = Biodistribution in ICR mouse spleen at 0.74 MBq, iv measured after 10 mins by automatic gamma counter analysis; type: ADME, organism-based; conditions: in vivo
[26] = Drug metabolism in mouse brain assessed as polar radiometabolites accumulation at 13.5 MBq, iv measured after 30 mins by HPLC analysis; type: ADME, organism-based; conditions: in vivo, 0.5 h
[27] = Drug uptake in brain of Sprague-Dawley rat at 9.9 to 14.8 MBq, iv pretreated with 1-(5-(3-fluorophenyl)-4,5-dihydro-1H-pyrazol-1-yl)-2,2-dimethylpropan-1-one measured upto 20 mins by PET analysis; type: ADME, organism-based; conditions: in vivo, dose 9.9-14.8 MBq
[28] = Biodistribution in ICR mouse small intestine at 0.74 MBq, iv measured after 30 mins by automatic gamma counter analysis; type: ADME, organism-based; conditions: in vivo, 0.5 h
[29] = Biodistribution in ICR mouse pancreas at 0.74 MBq, iv measured after 30 mins by automatic gamma counter analysis; type: ADME, organism-based; conditions: in vivo, 0.5 h
[30] = Biodistribution in ICR mouse bone at 0.74 MBq, iv measured after 30 mins by automatic gamma counter analysis; type: ADME, organism-based, Bone element; conditions: in vivo, 0.5 h
[31] = Drug uptake in Sprague-Dawley rat brain assessed as reduction in radioactivity at 10 to 17.6 MBq, iv pretreated with GSK'547 followed by compound administration measured upto 30 mins by PET analysis; type: ADME, organism-based; design: scale not given: the % may be the effect or the level left; conditions: in vivo, 0.5 h, dose 10-17.6 MBq
[32] = Biodistribution in ICR mouse assessed as drug accumulation in liver at 0.74 MBq, iv pretreated with GSK'547 followed by compound administration measured after 10 mins by automatic gamma counter analysis; type: ADME, organism-based; conditions: in vivo
[33] = Biodistribution in ICR mouse liver at 0.74 MBq, iv measured after 10 mins by automatic gamma counter analysis; type: ADME, organism-based; conditions: in vivo
[34] = Drug uptake in thalamus of ICR mouse brain assessed as reduction in radioactivity at 0.5 to 10 uM incubated for 30 mins in presence of 1 uM of GSK'547 by Phosphor Imager analysis; type: ADME, tissue-based; design: scale not given: the % may be the effect or the level left; conditions: 0.5 h, dose 0.5-10 µM
[35] = Drug metabolism in mouse plasma assessed as polar radiometabolites accumulation at 13.5 MBq, iv measured after 30 mins by HPLC analysis; type: ADME, organism-based; conditions: 0.5 h
[36] = Biodistribution in ICR mouse liver at 0.74 MBq, iv measured after 60 mins by automatic gamma counter analysis; type: ADME, organism-based; conditions: in vivo, 1 h
[37] = Biodistribution in ICR mouse brain at 0.74 MBq, iv measured after 10 mins by automatic gamma counter analysis; type: ADME, organism-based; conditions: in vivo
[38] = Drug metabolism in mouse brain assessed as parent compound remaining at 13.5 MBq, iv measured after 30 mins by HPLC analysis; type: ADME, organism-based; conditions: read-out: Activity
[39] = Drug uptake in thalamus of ICR mouse brain assessed as reduction in radioactivity at 0.5 to 10 uM incubated for 30 mins in presence of 10 uM of 1-(5-(3-fluorophenyl)-4,5-dihydro-1H-pyrazol-1-yl)-2,2-dimethylpropan-1-one by Phosphor Imager analysis; type: ADME, tissue-based; design: scale not given: the % may be the effect or the level left; conditions: 0.5 h, dose 0.5-10 µM
[40] = Biodistribution in ICR mouse assessed as decrease in drug accumulation in small intestine at 0.74 MBq, iv pretreated with GSK'547 followed by compound administration measured after 10 mins by automatic gamma counter analysis; type: ADME, organism-based; design: scale not given: the % may be the effect or the level left; conditions: in vivo

For `CC(C)(C)C(=O)N1N=CCC1c1cccc([18F])c1` (stereo not given), the Drug uptake [1] was 10.83 % ID/g, the Drug uptake [2] was 2.48 % ID/g and the Drug uptake [3] was 3.95 % ID/g. For the same compound, the Activity [4] was 25.3%, the Drug uptake [5] was 0.18 % ID/g and the Activity [6] was 21.7%. For the same compound, the Drug uptake [7] was 4.92 % ID/g, the Stability [8] was over 99% and the remaining at 0.5 h [9] was 1.2%. The Drug uptake [10] was “Active”, the Activity [11] was 11.9% and the Drug uptake [12] was 3.07 % ID/g. It also gave a Stability [13] of over 98%, a Drug uptake [14] of 5.69 % ID/g and a Drug uptake [15] of 0.41 % ID/g. For the same compound, the Drug uptake [16] was 1.3 % ID/g, the SUVmax [17] was 1.3 and the Drug uptake [18] was 0.91 % ID/g. For the same compound, the Drug uptake [19] was 3.3 % ID/g, the Drug uptake [20] was 15.6% and the Drug uptake [21] was 4.79 % ID/g. For the same compound, the Drug uptake [22] was 3.17 % ID/g, the Activity [23] was 9.1% and the Drug uptake [24] was 12.64 % ID/g. The Drug uptake [25] was 1.99 % ID/g, the Drug metabolism [26] was “Metabolite_Detected” and the Drug uptake [27] was 9.8%. The Drug uptake [28] was 22.56 % ID/g, the Drug uptake [29] was 1.51 % ID/g and the Drug uptake [30] was 8.26 % ID/g. It also gave an Activity [31] of 25.9%, a Drug uptake [32] of 23.2% and a Drug uptake [33] of 11.39 % ID/g. The Activity [34] was ~ 18%, the Drug metabolism [35] was “Metabolite_Detected” and the Drug uptake [36] was 2.69 % ID/g. The Drug uptake [37] was 1.36 % ID/g, the remaining at 0.5 h [38] was 22.4% and the Activity [39] was ~ 26%. The Activity [40] was 13.3%.
